Assay results reported in patent US20180215734A1, “PYRIMIDINE DERIVATIVES AS KINASE INHIBITORS AND THEIR THERAPEUTICAL APPLICATIONS” (NantBioScience, Inc., priority 2016, published 2018).

Key:
FGFR1(h) = FGFR1(h) (Homo sapiens, UniProt P11362); assay: Kinase assay, FGFR1(h); assay type: biochemical
Protocol: (§1) Kinase assay protocols well known to those of ordinary skill in the art were used. Specifically, the buffer composition was as follows: 20 mM MOPS, 1 mM EDTA, 0.01% Brij-35, 5% Glycerol, 0.1% β-mercaptoethanol, 1 mg/mL BSA. Test compounds were initially dissolved in DMSO at the desired concentration, then serially diluted to the kinase assay buffer. In a final reaction volume of 25 μL FGFR1(h) (5-10 mU) and KDR(h) (5-10 mU) are incubated with 8 mM MOPS pH 7.0, 0.2 mM EDTA, 200 μM LRRASLG (Kemptide), 10 mM magnesium acetate and [γ^33P-ATP]. The reaction was initiated by the addition of the MgATP mix. After incubation for 40 minutes at room temperature, the reaction was stopped by addition of 5 μL of a 3% phosphoric acid solution. Ten L of the reaction was then spotted onto a P30 filter mat and washed three times for 5 minutes in 50 mM phosphoric acid and once in methanol prior to drying and scintillation counting. Wells containing substrate but no kinase and wells containing a phosphopeptide control were used to set 0% and 100% phosphorylation value, respectively.
(§2) Of all of the steps in developing a drug, the hardest is finding promising compounds. (See, e.g., Malo et al., “Statistical practice in high-throughput screening data analysis,” Nature Biotechnology, 2006, 24, 167-75.) Kinase inhibitors often also have an anti-proliferative effect. […] The kinase inhibitory activity Compound 19 was tested using the kinase assay described in Example 3. […] These mutations in the tested kinases are thought to play an important role in transformation of some cancers.

KDR(h) = KDR(h) (Homo sapiens, UniProt P35968); assay: Kinase assay, KDR(h); assay type: biochemical
Protocol: as §1, §2

KG1a = assay: Inhibition of proliferation (CellTiterblue, 72 hr), KG1a; assay type: cell-based, human
Protocol: (§3) A number of studies were performed to analyze the consequences of tyrosine kinase inhibition in cell lines. To do this, 1000 cells are seeded in 27 μl/well in 384-well microplates, which are then placed in a humidified CO2 incubator at 37° C. overnight. The next day, 3 μl/well of 10× concentrated drug is added and the plates are returned to the incubator for 72 hr. After 72 hr incubation, plates are removed and 6 μl/well CellTiterblue (Promega) viability reagent is added. Plates are returned to the incubator for 3 hrs, after which fluorescence measurements are read on the Victor X3 plate reader (Perkin Elmer). Data are analyzed using Excel (Microsoft), and GI50 values are determined using Prism (Graphpad).

Kato III = assay: Inhibition of proliferation (CellTiterblue, 72 hr), Kato III; assay type: cell-based; details: Homo sapiens, KATO III, 72 h
Protocol: as §3

RT112 = assay: Inhibition of proliferation (CellTiterblue, 72 hr), RT112; assay type: cell-based; details: Homo sapiens, RT-112, 72 h
Protocol: as §3

FGFR3(h) = FGFR3(h) (Homo sapiens, UniProt P22607); assay: Kinase assay, FGFR3(h); assay type: biochemical
FGFR4(h) = FGFR4(h) (Homo sapiens, UniProt P22455); assay: Kinase assay, FGFR4(h); assay type: biochemical
Flt4(h) = Flt4(h) (Homo sapiens, UniProt P35916); assay: Kinase assay, Flt4(h); assay type: biochemical
ALK(h) = ALK(h) (Homo sapiens, UniProt Q9UM73); assay: Kinase assay, ALK(h); assay type: biochemical
Aurora-A (h) = Aurora-A (h) (Homo sapiens, UniProt O14965); assay: Kinase assay, Aurora-A (h); assay type: biochemical
Axl(h) = Axl(h) (Homo sapiens, UniProt P30530); assay: Kinase assay, Axl(h); assay type: biochemical
Flt3(h) = Flt3(h) (Homo sapiens, UniProt P36888); assay: Kinase assay, Flt3(h); assay type: biochemical
AJK2(h) = AJK2(h) (Homo sapiens, UniProt O60674); assay: Kinase assay, AJK2(h); assay type: biochemical
MEK1(h) = MEK1(h) (Homo sapiens, UniProt Q02750); assay: Kinase assay, MEK1(h); assay type: biochemical
Mer(h) = Mer(h) (Homo sapiens, UniProt Q12866); assay: Kinase assay, Mer(h); assay type: biochemical
Met(h) = Met(h) (Homo sapiens, UniProt P08581); assay: Kinase assay, Met(h); assay type: biochemical
Ret(h) = Ret(h) (Homo sapiens, UniProt P07949); assay: Kinase assay, Ret(h); assay type: biochemical
Tie2(h) = Tie2(h) (Homo sapiens, UniProt Q02763); assay: Kinase assay, Tie2(h); assay type: biochemical
Parental BaF3 cells = assay: BaF3 cell model, Parental; assay type: cell-based; details: Mus musculus, read-out: IC5o(nM) Parental
Description: (§4) In FIG. 1 these kinases are from the fibroblast growth factor receptor class of kinases (FGFR1-FGFR4). Compound 19 kinase inhibitory activity FGFR1-FGFR4 are also depicted in Table 5.

FGFR1 = molecular target: T1, FGFR1 (Homo sapiens, UniProt P11362); assay: BaF3 cells engineered for expression of FGFR1; assay type: cell-based; details: read-out: IC5o(nM) FGFR1
T1 construct: expressed in transfected cells; host or cells: BaF3
Description: as §4

FGFR2 = molecular target: T2, FGFR2 (Homo sapiens, UniProt P21802); assay: BaF3 cells engineered for expression of FGFR2; assay type: cell-based; details: read-out: IC5o(nM) FGFR2
T2 construct: expressed in transfected cells; host or cells: BaF3
Description: as §4

FGFR4 = molecular target: T3, FGFR4 (Homo sapiens, UniProt P22455); assay: BaF3 cells engineered for expression of FGFR4; assay type: cell-based; details: read-out: IC5o(nM) FGFR4
T3 construct: expressed in transfected cells; host or cells: BaF3
Description: as §4

[1] = Metabolic stability, human liver microsomes; assay type: in vitro ADME
[2] = Cellular toxicity, HepG2 cell line; assay type: cell-based; details: human, HepG2 cells
Description: (§5) Table 9 discloses toxicity data for compound 19 from various toxicity tests well known to those of ordinary skill.

[3] = In vivo acute toxicity, MTD; details: PO, rat
Description: as §5

CYP450 3A4 = CYP450 3A4 (Homo sapiens, UniProt P08684); assay: CYP450 inhibition, 3A4; assay type: in vitro ADME
Description: as §5

FGFR1(h), sequence (P11362 22-822): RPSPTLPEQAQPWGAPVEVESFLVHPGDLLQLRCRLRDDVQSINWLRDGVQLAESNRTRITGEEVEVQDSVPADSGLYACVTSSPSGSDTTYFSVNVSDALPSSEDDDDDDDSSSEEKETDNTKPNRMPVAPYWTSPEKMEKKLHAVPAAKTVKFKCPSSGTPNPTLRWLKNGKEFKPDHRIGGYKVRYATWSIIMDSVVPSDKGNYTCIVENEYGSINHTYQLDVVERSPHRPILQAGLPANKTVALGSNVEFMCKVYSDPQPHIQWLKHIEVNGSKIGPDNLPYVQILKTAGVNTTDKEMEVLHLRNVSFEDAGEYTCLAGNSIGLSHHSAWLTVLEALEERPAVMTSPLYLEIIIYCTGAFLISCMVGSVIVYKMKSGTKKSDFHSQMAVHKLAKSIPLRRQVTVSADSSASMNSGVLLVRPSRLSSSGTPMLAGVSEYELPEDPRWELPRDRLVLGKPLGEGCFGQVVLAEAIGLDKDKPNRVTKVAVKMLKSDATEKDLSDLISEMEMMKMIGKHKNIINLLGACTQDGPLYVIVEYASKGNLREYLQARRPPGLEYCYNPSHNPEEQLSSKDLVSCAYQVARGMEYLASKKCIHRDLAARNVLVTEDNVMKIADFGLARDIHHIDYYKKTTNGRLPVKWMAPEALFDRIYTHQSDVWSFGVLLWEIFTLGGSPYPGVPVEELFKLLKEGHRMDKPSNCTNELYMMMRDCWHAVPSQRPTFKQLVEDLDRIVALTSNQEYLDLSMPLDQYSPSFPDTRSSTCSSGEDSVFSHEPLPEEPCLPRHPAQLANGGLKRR
KDR(h), sequence (P35968 20-1356): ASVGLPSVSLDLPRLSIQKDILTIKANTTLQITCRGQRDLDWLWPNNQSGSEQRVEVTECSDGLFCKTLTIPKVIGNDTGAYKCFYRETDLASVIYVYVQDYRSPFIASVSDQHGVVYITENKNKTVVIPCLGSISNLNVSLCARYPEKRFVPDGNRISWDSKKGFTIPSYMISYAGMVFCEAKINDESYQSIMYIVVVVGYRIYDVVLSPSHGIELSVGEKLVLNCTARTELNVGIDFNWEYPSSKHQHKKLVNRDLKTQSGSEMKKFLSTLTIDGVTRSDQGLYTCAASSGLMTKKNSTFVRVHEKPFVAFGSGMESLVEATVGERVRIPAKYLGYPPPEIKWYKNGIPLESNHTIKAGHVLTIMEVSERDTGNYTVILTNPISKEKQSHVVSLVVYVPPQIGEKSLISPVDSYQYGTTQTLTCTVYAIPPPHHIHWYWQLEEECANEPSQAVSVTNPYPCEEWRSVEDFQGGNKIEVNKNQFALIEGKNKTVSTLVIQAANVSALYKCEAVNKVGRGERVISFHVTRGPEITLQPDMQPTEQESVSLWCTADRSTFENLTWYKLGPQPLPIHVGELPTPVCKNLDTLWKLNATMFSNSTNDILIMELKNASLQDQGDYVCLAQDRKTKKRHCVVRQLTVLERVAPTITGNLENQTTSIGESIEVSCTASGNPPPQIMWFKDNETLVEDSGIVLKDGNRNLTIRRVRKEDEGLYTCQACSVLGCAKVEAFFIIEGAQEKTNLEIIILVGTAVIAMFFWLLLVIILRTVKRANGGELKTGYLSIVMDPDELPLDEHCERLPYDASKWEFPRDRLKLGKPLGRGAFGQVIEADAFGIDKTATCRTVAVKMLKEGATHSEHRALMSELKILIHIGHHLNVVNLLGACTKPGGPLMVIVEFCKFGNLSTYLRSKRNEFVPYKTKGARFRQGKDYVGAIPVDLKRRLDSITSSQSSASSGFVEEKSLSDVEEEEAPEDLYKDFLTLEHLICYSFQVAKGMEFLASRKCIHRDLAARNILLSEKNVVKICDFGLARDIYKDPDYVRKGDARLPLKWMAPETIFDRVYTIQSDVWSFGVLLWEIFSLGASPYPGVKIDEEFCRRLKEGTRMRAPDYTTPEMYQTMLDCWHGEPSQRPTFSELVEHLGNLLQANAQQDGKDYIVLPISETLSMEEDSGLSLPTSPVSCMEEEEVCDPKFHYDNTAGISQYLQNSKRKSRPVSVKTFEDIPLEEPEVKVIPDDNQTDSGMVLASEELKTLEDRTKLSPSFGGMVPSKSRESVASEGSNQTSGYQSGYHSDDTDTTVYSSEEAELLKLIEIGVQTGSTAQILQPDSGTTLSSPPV
Flt3(h), sequence (P36888 27-993): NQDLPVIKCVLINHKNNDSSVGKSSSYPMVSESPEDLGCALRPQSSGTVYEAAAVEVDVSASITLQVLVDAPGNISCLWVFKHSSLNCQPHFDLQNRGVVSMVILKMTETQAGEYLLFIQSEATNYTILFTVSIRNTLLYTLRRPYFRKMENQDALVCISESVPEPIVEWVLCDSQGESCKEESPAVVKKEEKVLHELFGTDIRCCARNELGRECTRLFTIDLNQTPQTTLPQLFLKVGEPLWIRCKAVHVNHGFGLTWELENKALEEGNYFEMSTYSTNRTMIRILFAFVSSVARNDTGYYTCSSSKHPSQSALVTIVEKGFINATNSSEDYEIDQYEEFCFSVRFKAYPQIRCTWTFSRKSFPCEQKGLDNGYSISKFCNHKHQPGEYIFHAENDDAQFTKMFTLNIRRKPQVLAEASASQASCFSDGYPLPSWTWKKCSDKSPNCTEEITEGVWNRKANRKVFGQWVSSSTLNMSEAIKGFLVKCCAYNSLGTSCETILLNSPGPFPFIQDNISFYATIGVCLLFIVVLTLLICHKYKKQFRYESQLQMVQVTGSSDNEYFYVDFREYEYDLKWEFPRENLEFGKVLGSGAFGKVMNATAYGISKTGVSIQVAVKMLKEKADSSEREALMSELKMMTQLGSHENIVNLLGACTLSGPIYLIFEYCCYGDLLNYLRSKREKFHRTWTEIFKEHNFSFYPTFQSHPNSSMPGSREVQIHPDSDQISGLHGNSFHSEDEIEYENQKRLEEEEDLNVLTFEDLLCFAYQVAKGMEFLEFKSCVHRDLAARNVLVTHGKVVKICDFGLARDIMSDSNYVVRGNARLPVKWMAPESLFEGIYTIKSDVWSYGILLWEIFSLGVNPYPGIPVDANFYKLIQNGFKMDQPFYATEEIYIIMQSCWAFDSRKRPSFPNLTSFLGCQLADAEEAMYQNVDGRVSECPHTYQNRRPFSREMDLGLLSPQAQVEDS
T1 sequence (P11362 22-822, species assumed): as the sequence (P11362 22-822) above
Met(h), sequence (P08581 25-1390): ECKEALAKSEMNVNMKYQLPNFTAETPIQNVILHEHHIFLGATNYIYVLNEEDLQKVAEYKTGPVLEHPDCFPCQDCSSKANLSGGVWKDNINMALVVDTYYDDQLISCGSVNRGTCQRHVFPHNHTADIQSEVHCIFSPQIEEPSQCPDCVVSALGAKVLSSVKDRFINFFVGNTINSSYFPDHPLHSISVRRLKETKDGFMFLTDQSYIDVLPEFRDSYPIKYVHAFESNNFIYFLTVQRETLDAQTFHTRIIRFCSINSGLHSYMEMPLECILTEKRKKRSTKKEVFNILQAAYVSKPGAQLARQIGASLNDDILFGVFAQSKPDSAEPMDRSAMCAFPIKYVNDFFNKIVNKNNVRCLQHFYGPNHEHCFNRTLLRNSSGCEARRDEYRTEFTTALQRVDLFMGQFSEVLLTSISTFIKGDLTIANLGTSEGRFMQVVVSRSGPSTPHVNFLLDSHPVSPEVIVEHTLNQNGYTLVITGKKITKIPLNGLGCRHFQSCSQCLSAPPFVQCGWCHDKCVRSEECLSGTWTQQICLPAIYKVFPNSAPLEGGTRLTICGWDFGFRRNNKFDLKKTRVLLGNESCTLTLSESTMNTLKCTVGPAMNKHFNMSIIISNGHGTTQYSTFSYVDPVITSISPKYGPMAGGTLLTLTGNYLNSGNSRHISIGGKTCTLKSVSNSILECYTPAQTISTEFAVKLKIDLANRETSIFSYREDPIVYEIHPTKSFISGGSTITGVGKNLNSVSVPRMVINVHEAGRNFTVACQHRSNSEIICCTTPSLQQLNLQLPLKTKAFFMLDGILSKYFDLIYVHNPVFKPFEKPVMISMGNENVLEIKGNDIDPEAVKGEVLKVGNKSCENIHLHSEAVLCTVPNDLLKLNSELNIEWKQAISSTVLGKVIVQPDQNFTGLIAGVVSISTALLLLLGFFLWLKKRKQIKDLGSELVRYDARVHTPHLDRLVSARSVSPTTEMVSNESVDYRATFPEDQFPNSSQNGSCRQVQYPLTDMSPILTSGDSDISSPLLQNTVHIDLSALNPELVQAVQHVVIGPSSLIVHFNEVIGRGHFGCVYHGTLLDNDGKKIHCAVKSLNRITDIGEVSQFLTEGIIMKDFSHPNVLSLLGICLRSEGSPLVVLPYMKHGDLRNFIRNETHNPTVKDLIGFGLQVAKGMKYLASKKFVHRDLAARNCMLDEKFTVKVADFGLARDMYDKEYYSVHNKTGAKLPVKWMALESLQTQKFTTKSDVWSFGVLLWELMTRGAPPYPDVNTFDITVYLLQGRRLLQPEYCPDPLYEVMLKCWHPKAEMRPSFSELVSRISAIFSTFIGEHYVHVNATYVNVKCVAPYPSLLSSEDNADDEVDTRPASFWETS
Aurora-A (h), sequence (O14965 whole entry): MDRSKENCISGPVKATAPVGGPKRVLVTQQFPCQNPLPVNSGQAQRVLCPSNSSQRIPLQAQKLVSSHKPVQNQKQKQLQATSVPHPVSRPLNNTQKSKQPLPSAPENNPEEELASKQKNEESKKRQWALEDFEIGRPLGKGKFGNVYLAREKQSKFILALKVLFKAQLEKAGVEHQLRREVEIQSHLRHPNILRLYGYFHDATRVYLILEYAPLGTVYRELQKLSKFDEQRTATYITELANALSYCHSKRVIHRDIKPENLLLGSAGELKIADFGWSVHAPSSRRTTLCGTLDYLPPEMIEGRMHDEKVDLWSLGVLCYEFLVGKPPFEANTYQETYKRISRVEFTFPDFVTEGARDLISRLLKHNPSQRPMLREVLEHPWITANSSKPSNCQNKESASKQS

## Cc1cc2c(F)c(Oc3ncnc(Nc4ccc(N5C[C@@H](C)N[C@@H](C)C5)cc4)c3C#N)cc(F)c2[nH]1 [Compound 19]
FGFR1(h)
  IC50: 0.9 nM
FGFR1(h); 1 μM
  inhibition at 1 µM: 100%
KDR(h)
  IC50: 485 nM
  inhibition at 1 µM: 86%
KG1a; Homo sapiens, KG-1a, 72 hr
  GI50: 0.2 nM
KG1a; proliferation assay of Example 2
  Anti-proliferation activity in KG1a (in words): especially effective
Kato III
  GI50: 79 nM
RT112
  GI50: 66 nM
FGFR3(h)
  IC50: 12 nM
FGFR4(h)
  IC50: 12 nM
Flt4(h)
  IC50: 116 nM
ALK(h)
  IC50: > 1000 nM
Aurora-A (h)
  IC50: > 1000 nM
Axl(h)
  IC50: > 1000 nM
Flt3(h)
  IC50: > 1000 nM
AJK2(h)
  IC50: > 1000 nM
MEK1(h)
  IC50: > 1000 nM
Mer(h)
  IC50: > 1000 nM
Met(h)
  IC50: > 1000 nM
Ret(h)
  IC50: > 1000 nM
Tie2(h)
  IC50: > 1000 nM
Parental BaF3 cells
  IC50: 1890 nM
FGFR1
  IC50: 11.4 nM
FGFR2
  IC50: 17.6 nM
FGFR4
  IC50: 92.1 nM
[1]
  half-life: > 1 h
[2]
  CC50: 1900 nM
[3]
  MTD: 100 mg/kg
CYP450 3A4
  IC50: 67300 nM
